Several values for one entry are separate records, joined by “and”; a condition that tells them apart may be missing. Equal entries are not always repeated. Marks after values point to notes of the source that are not given here.
Assays:
[1] = system: CMDR A. baumannii (FADDI-AB156); experiment: MBC determination (in vitro antimicrobial experiment, CFU counting); format: cell-based, Acinetobacter baumannii; conditions: compound alone
Description: (§1) Freeze-dried cultures of Escherichia coli (E. coli, ATCC 25922), Klebsiella pneumoniae (K. pneumoniae, ATCC 13883), Pseudomonas aeruginosa (P. aeruginosa, ATCC 47085), Acinetobacter baumannii (A. baumannii, ATCC 19606), colistin and multidrug-resistant (CMDR) A. baumannii (FADDI-AB156), and CMDR P. aeruginosa (FADDI-PA067) were grown aerobically and maintained by passage at ambient temperature on horse blood agar (10% v/v defibrinated horse blood, 4.4% w/v Oxoid Blood Agar Base No. 2). Overnight cultures were made from transferring a colony (ca. half a loop) from the agar plates to culture tubes containing sterilized Luria-Bertani broth (LB, 1% w/v Bacto™ Tryptone, 1% w/v NaCl, 0.5% w/v Oxoid Yeast Extract) (20 mL). Bacterial cultures were incubated overnight at 37° C. with aeration and without agitation, with the exception of the two P. aeruginosa strains (ATCC 47085 and FADDI-PA067) which were cultured at 37° C. with aeration and agitation (150 rpm). On the next day, for E. coli, K. pneumonia, P. aeruginosa (ATCC 47085), and CMDR P. aeruginosa (FADDI-PA067), small aliquots (i.e., 0.5-3 mL) were taken from the culture tubes, further diluted with LB (20 mL), and incubated for 3-4 h at 37° C. with aeration before use. All bacterial cultures were cultured without agitation, with the exception of P. aeruginosa ATCC 47085 and FADDI-PA067 which were cultured with shaking at 150 rpm. For A. baumannii, an aliquot of 0.5 mL was taken from the overnight culture tube, further diluted with LB (200 mL), and incubated overnight at 37° C. with aeration before use.
(§2) The 96-well plate was then incubated at 37° C. for 1.5 or 3 h. For each well, microbial solution was diluted with saline (0.9% NaCl solution) using an appropriate dilution factor and placed on a LB agar plate (LB broth containing 15 g/L Oxoid Blood Agar Base No. 2). For E. coli, K. pneumoniae, and A. Baumannii (ATCC 19606 and FADDI-AB156), the agar plates were incubated overnight at room temperature, and then at 37° C. with aeration for 2 h. For P. Aeruginosa (ATCC 47085 and FADDI-PA067), the agar plates were incubated at 37° C. with aeration. The number of colony-forming units (CFU) was counted and expressed as CFU/mL. Positive controls consisting of cells without any treatment were used. […] A minimum of two independent experiments (biological replicates) of the assay were conducted and three technical replicates were used in each experiment. Data is expressed as mean±standard deviation (SD) and analysed using student's t-test.

[2] = system: Escherichia coli (E. coli, ATCC 25922); experiment: as above; format: cell-based; conditions: compound alone
Description: as §1, §2

[3] = system: Klebsiella pneumoniae (K. pneumoniae, ATCC 13883); experiment: as above; format: cell-based; conditions: compound alone
Description: as §1, §2

[4] = system: Pseudomonas aeruginosa (P. aeruginosa, ATCC 47085); experiment: as above; format: cell-based; conditions: compound alone; P. aeruginosa (wild-type)
Description: as §1, §2

[5] = system: Acinetobacter baumannii (A. baumannii, ATCC 19606); experiment: as above; format: cell-based; conditions: compound alone; A. baumannii (wild-type)
Description: as §1, §2

[6] = system: CMDR P. aeruginosa (FADDI-PA067); experiment: S16-antibiotic co-administration, synergy by Bliss Independence and HSA models; format: cell-based, Pseudomonas aeruginosa
Description: as §2
(§3) The Bliss Independence and HSA models were used to calculate drug synergism. […] Biotechnol. 31, 160-165 (2013). With the Bliss Independence model, synergism was calculated using the formula, BICAB=A+B−AB (1), where A and B are the effects of the two drugs in isolation and BICAB is the combined effect of the two drugs as predicted by the Bliss Independence model. […] In the HSA model, if CAB is greater than the greater of A and B, CAB>max(A, B), synergy is observed. The quantitative effect of the compounds when administered alone (i.e., A and B) or in combination (i.e., CAB) was defined as the fractional reduction of the population, R=1−CFUt/CFU0, where CFUt is the CFU/mL measured after treatment, and CFU0 is the CFU/mL measured before treatment.

[7] = system: CMDR P. aeruginosa (FADDI-PA067); experiment: MBC determination (in vitro antimicrobial experiment, CFU counting); format: cell-based, Pseudomonas aeruginosa; conditions: compound alone
Description: as §1, §2

[8] = system: rat hepatoma (H4IIE) cells; experiment: Apoptosis/necrosis assay (mammalian cell viability); conditions: single agent at a dose equivalent to its MBC (against CMDR A. baumannii); 90 min incubation
Description: Rat hepatoma cells (H4IIE) were cultivated in DMEM medium (supplemented with 10% FBS, 1× GlutaMAX™, and 1× penicillin-streptomycin) in a humidified atmosphere containing 5% CO2 at 37° C. Cells were seeded in a T75 flask (ca. 3×10^6 cells/ml) and passaged twice a week prior to performing the subsequent cell viability studies.
Adherent H4IIE cells (obtained from the ATCC, and throughout the course of the study cells were checked for mycoplasma contamination using Mycoplasma stain kit, Myc1, Sigma) were grown to 80% confluence and trypsinised prior to assay. H4IIE cells were chosen for this study as they are standard cell lines used in toxicity studies. Cells were diluted 1:2 with ‘complete’ DMEM and seeded in a 24-well plate (1 mL per well). The cells were incubated at 37° C. in 5% CO2 for 24 h until ca. 95% confluence. The medium was removed. […] The cells were then harvested and all well contents were transferred to round-bottomed polypropylene tubes (5 mL). The cells were washed with cold DPBS, then stained with YO-PRO®-1 and PI (0.2 mL from a stock solution, whereby both dyes were diluted 1:1000 in cold DPBS, per well), and incubated on ice for 20 to 30 min. The cells were analyzed by flow cytometry (Cytomics FC 500 MPL System). Standard compensation was performed using single-colour stained cells. Negative controls using untreated cells were included. […]

[9] = system: CMDR A. baumannii (FADDI-AB156); experiment: S16-antibiotic co-administration, synergy by Bliss Independence and HSA models; format: cell-based, Acinetobacter baumannii
Description: as §2, §3

[10] = system: Escherichia coli (E. coli, ATCC 25922); experiment: as above; format: cell-based
Description: as §2, §3

[11] = system: Klebsiella pneumoniae (K. pneumoniae, ATCC 13883); experiment: as above; format: cell-based
Description: as §2, §3

[12] = system: Pseudomonas aeruginosa (P. aeruginosa, ATCC 47085); experiment: as above; format: cell-based
Description: as §2, §3

[13] = system: Acinetobacter baumannii (A. baumannii, ATCC 19606); experiment: as above; format: cell-based
Description: as §2, §3

[14] = S16 and antibiotic co-administered, each at MBC50, 3 h
[15] = antibiotic in combination with S16, 3 h, Bliss Independence model
[16] = antibiotic in combination with S16, 3 h, Highest Single Agent model
[17] = co-administered S16 (at MBC50) and antibiotic, antibiotic concentration giving at least 2-log reduction in CFU/mL, 3 h

## O=[N+]([O-])[O-].[Ag+] [Ag^+, silver nitrate]
[1]
  MBC: 10.6 µM
[2]
  MBC: 3.5 µM
[3]
  MBC: 10.6 µM
[4]
  MBC: 1.2 µM
[5]
  MBC: 8.2 µM
[6]; 3 h time point
  Interaction with S16 as evaluated by the Bliss Independence and HSA models (in words): synergize
[6]; MBCeff with S16 versus MBC alone
  Fold reduction of MBC: 6.5 fold
[6]; [14]
  MBC in combination: 11.8 µM
[6]; all compounds at MBC50, t=3 h
  Antimicrobial activity on co-administration with S16 compared to compounds alone (log change in CFU/mL): Enhanced antimicrobial activity
[6]; [15]
  Synergistic? (Yes/No) Bliss*: Yes
[6]; [16]
  Synergistic? (Yes/No) HAS*: Yes
[6]; [17]
  MBC in combination, MBCeff: 5.9^a μM
[7]
  MBC: 38.3 µM
[8]
  H4IIE cell viability reduced by, compared to the untreated control: 33%
[9]; 3 h time point
  Interaction with S16 as evaluated by the Bliss Independence and HSA models (in words): synergize
[9]; MBCeff in combination versus MBC alone
  Fold reduction of MBC: 3.7 fold
[9]; [14]
  MBC in combination: 2.9 µM
[9]; all compounds at MBC50, t=3 h
  Antimicrobial activity on co-administration with S16 compared to compounds alone (log change in CFU/mL): Enhanced antimicrobial activity
[9]; [15]
  Synergistic? (Yes/No) Bliss*: Yes
[9]; [16]
  Synergistic? (Yes/No) HAS*: Yes
[9]; [17]
  MBC in combination, MBCeff: 2.9 μM and 2.9^a μM
[10]; 3 h time point
  Interaction with S16 as evaluated by the Bliss Independence and HSA models (in words): synergize
[10]; [14]
  MBC in combination: 1.8 µM
[10]; all compounds at MBC50, t=3 h
  Antimicrobial activity on co-administration with S16 compared to compounds alone (log change in CFU/mL): significantly enhanced antimicrobial activity
[10]; [15]
  Synergistic? (Yes/No) Bliss*: Yes
[10]; [16]
  Synergistic? (Yes/No) HAS*: Yes
[11]; 3 h time point
  Interaction with S16 as evaluated by the Bliss Independence and HSA models (in words): synergize
[11]; [14]
  MBC in combination: 5.3 µM
[11]; all compounds at MBC50, t=3 h
  Antimicrobial activity on co-administration with S16 compared to compounds alone (log change in CFU/mL): significantly enhanced antimicrobial activity
[11]; [15]
  Synergistic? (Yes/No) Bliss*: Yes
[11]; [16]
  Synergistic? (Yes/No) HAS*: Yes
[12]; P. aeruginosa wild-type, 3 h time point
  Interaction with S16 as evaluated by the Bliss Independence and HSA models (in words): synergize
[12]; P. aeruginosa wild-type, all compounds at MBC50, t=3 h
  Antimicrobial activity on co-administration with S16 compared to compounds alone (log change in CFU/mL): significantly enhanced antimicrobial activity
[12]; P. aeruginosa, S16 and antibiotic co-administered, each at MBC50, 3 h
  MBC in combination: 0.5 µM
[12]; antibiotic in combination with S16, P. aeruginosa, 3 h, Bliss Independence model
  Synergistic? (Yes/No) Bliss*: Yes
[12]; antibiotic in combination with S16, P. aeruginosa, 3 h, Highest Single Agent model
  Synergistic? (Yes/No) HAS*: Yes
[13]; A. baumannii wild-type, 3 h time point
  Interaction with S16 as evaluated by the Bliss Independence and HSA models (in words): synergize
[13]; A. baumannii wild-type, all compounds at MBC50, t=3 h
  Antimicrobial activity on co-administration with S16 compared to compounds alone (log change in CFU/mL): significantly enhanced antimicrobial activity
[13]; A. baumannii, S16 and antibiotic co-administered, each at MBC50, 3 h
  MBC in combination: 4.1 µM
[13]; antibiotic in combination with S16, A. baumannii, 3 h, Bliss Independence model
  Synergistic? (Yes/No) Bliss*: Yes
[13]; antibiotic in combination with S16, A. baumannii, 3 h, Highest Single Agent model
  Synergistic? (Yes/No) HAS*: Yes
